This note sets out measurements from US8288371B2, “Ortho pyrrolidine, benzyl-substituted heterocycle CCR1 antagonists for autoimmune diseases and inflammation” (Pharmacopeia, LLC, priority 2007, dated 2012).

This experiment addresses T1, human CCR1 (Homo sapiens, UniProt P32246).
T1 sequence (P32246 1-355): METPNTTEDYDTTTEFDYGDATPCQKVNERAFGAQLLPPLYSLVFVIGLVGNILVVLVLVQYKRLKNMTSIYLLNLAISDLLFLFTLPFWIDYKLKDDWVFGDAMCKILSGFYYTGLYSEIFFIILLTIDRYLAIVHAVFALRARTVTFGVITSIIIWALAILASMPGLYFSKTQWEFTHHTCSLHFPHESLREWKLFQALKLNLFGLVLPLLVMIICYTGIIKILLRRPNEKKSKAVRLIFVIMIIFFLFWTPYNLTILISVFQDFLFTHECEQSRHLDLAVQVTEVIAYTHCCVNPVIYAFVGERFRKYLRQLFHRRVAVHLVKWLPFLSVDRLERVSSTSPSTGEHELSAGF
The experiment can be described thus: CCR1 binding protocol (SPA, [125I]-MIP-1α displacement). To be noted: cell membrane expressing human CCR1, 0.1 nM [125I]-MIP-1α, 4 hours at ambient temperature; read-out: Relative potency (IC50). In a few lines:
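Human CCR1 membranes (0.5 μg/well) on SPA beads were incubated with compound and 0.1 nM [125I]-MIP-1α (final) for 4 h at ambient temperature. Buffer was Tris pH 7.4 with NaCl, KCl, MnCl and 0.1% BSA. IC50 came from ½-log compound dilutions (10 mM top DMSO stock) by displacement of bound radioligand.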
As to `Cc1nnc([C@H]2C[C@@H](O)CN2C(=O)N[C@H]2CCOc3cc(C(F)(F)F)ccc32)n1Cc1ccc(Cl)cc1` [Compound 393], the 50% inhibitory concentration (IC50) is under 50 nM. The same measure for `Cc1ccc(NC(=O)N2CCC[C@@H]2c2nnc(C)n2Cc2ccc(Cl)cc2)c(Cl)n1` [Compound 394]: 50 to 500 nM; for `Cc1nnc([C@H]2CCCN2C(=O)Nc2ccc(Cl)nc2Cl)n1Cc1ccc(Cl)cc1` [Compound 395]: under 50 nM. Turning to `Cc1nnc([C@H]2CCCN2C(=O)Nc2ccc(C#N)nc2)n1Cc1ccc(Cl)cc1` [Compound 396], the IC50 fell in the range of 50 to 500 nM. With `Cc1nn(C)c(C)c1N/C(=N\C#N)N1CCC[C@@H]1c1nnc(C)n1Cc1ccc(Cl)cc1` [Compound 397] the figure was 50 to 500 nM; with `Cc1nc(Cl)ccc1NC(=O)N1CCC[C@@H]1c1nnc(C)n1Cc1ccc(Cl)cc1` [Compound 398], under 50 nM; with `Cc1nnc([C@H]2CCCN2C(=O)NC2(c3ccccc3)CC2)n1Cc1ccc(F)cc1` [Compound 399], 50 to 500 nM. As to `Cc1noc(C)c1NC(=O)N1CCC[C@@H]1c1nnc(C)n1[C@@H](C)c1ccc(Cl)cc1` [Compound 400], the 50% inhibitory concentration (IC50) lay within 500 to 5000 nM.

Turning to `C[C@@H](NC(=O)N1CCC[C@@H]1c1nnc(CO)n1Cc1ccc(Cl)cc1)c1ccc(Cl)cc1` [Compound 401], the IC50 lay in the range of 50 to 500 nM.

Take `C[C@H](NC(=O)N1CCC[C@@H]1c1nnc(CO)n1Cc1ccc(Cl)cc1)c1ccc(Cl)cc1` [Compound 402]: the IC50 is under 50 nM. As for `Cc1nnc([C@H]2CCCN2C(=O)N[C@@H]2c3ccccc3C[C@H]2O)n1Cc1ccc(Cl)cc1` [Compound 403], the half-maximal inhibitory concentration (IC50) is 50 to 500 nM. With `Cc1nc(C(F)(F)F)ccc1NC(=O)N1CCC[C@@H]1c1nnc(C)n1Cc1ccc(Cl)cc1` [Compound 404] the figure was under 50 nM. For `Cc1nnc([C@H]2CCCN2C(=O)Nc2ccc(Cl)cc2C(F)(F)F)n1Cc1ccc(Cl)cc1` [Compound 405], the concentration for half-maximal inhibition (IC50) is under 50 nM.

For the compound `Cc1ccc(S(C)(=O)=O)c(C)c1NC(=O)N1CCC[C@@H]1c1nnc(C)n1Cc1ccc(Cl)cc1` [Compound 406], the IC50 was under 50 nM. As for `CC[C@H](C)NC(=O)N1CCC[C@@H]1c1nnc(C)n1Cc1ccc(Cl)cc1` [Compound 407], the IC50 lay in the range of 50 to 500 nM.

Take `Cc1nnc([C@H]2CCCN2C(=O)Nc2ccc(Cl)c(F)c2)n1Cc1ccc(Cl)cc1` [Compound 408]: the IC50 lay within 50 to 500 nM. For `Cc1cc(Cl)ccc1NC(=O)N1CCC[C@@H]1c1nnc(C)n1Cc1ccc(Cl)cc1` [Compound 409], the half-maximal inhibitory concentration (IC50) is under 50 nM.

Take `Cc1nnc([C@H]2CCCN2C(=O)N[C@H]2CCOc3cc(C(F)(F)F)ccc32)n1Cc1ccc(Cl)c(Cl)c1` [Compound 410]: the IC50 lay in the range of 50 to 500 nM. As to `Cc1nnc([C@H]2CCCN2C(=O)N[C@H]2CCOc3cc(C(F)(F)F)ccc32)n1Cc1ccc(F)cc1` [Compound 411], the IC50 is under 50 nM. The same measure for `Cc1nnc([C@H]2CCCN2C(=O)NC2(c3ccccc3)CC2)n1Cc1ccc(Cl)c(Cl)c1` [Compound 412]: under 50 nM. The same measure for `CNCc1nnc([C@H]2CCCN2C(=O)N[C@H]2CCOc3cc(C(F)(F)F)ccc32)n1Cc1ccc(Cl)cc1` [Compound 413]: 50 to 500 nM; for `NCc1nnc([C@H]2CCCN2C(=O)N[C@H]2CCOc3cc(C(F)(F)F)ccc32)n1Cc1ccc(Cl)cc1` [Compound 414]: 50 to 500 nM; for `Cc1ncc(NC(=O)N2CCC[C@@H]2c2nnc(C)n2Cc2ccc(Cl)cc2)c(C)n1` [Compound 415]: under 50 nM.

Take `Cc1nnc([C@H]2CCCN2C(=O)Nc2cccc(Cl)c2F)n1Cc1ccc(Cl)cc1` [Compound 416]: the 50% inhibitory concentration (IC50) was under 50 nM. The same measure for `Cc1nnc([C@H]2CCCN2C(=O)Nc2ccc(Cl)cc2C#N)n1Cc1ccc(Cl)cc1` [Compound 417]: under 50 nM; for `Cc1nnc([C@H]2CCCN2C(=O)Nc2ccc(Br)cc2F)n1Cc1ccc(Cl)cc1` [Compound 418]: under 50 nM. The same measure for `Cc1nnc([C@H]2CCCN2C(=O)Nc2cc(Cl)ccc2F)n1Cc1ccc(Cl)cc1` [Compound 419]: 50 to 500 nM; for `Cc1nnc([C@H]2CCCN2/C(=N/C#N)NCc2ccc(Cl)cc2Cl)n1Cc1ccc(Cl)cc1` [Compound 420]: 50 to 500 nM; for `Cc1nnc([C@H]2CCCN2C(=O)Nc2ccc(Cl)cc2Cl)n1Cc1ccc(Cl)cc1` [Compound 421]: 50 to 500 nM.

As to `Cc1nnc([C@H]2CCCN2C(=O)Nc2ccc(F)cc2F)n1Cc1ccc(Cl)cc1` [Compound 422], the concentration for half-maximal inhibition (IC50) was in the range of 50 to 500 nM. For `Cc1nnc([C@H]2CCCN2C(=O)Nc2cc(C(F)(F)F)ccc2S(C)(=O)=O)n1Cc1ccc(Cl)cc1` [Compound 423], the IC50 lay in the range of 50 to 500 nM.

Take `Cc1nnc([C@H]2CCCN2C(=O)Nc2ccc(Cl)c(Cl)c2)n1Cc1ccc(Cl)cc1` [Compound 424]: the IC50 was 50 to 500 nM. The same measure for `Cc1nnc([C@H]2CCCN2C(=O)Nc2ccc(F)cc2Cl)n1Cc1ccc(Cl)cc1` [Compound 425]: under 50 nM; for `Cc1cc(NC(=O)N2CCC[C@@H]2c2nnc(C)n2Cc2ccc(Cl)cc2)c(F)cc1Cl` [Compound 426]: under 50 nM. The same measure for `Cc1nnc([C@H]2CCCN2C(=O)Nc2cc(F)c(Cl)cc2F)n1Cc1ccc(Cl)cc1` [Compound 427]: under 50 nM; for `COc1cc(Cl)ccc1NC(=O)N1CCC[C@@H]1c1nnc(C)n1Cc1ccc(Cl)cc1` [Compound 428]: under 50 nM. With `Cc1nnc([C@H]2CCCN2C(=O)Nc2c(F)cc(Cl)cc2F)n1Cc1ccc(Cl)cc1` [Compound 429] the figure was under 50 nM. Take `Cc1nnc([C@H]2CCCN2C(=O)Nc2ccc3c(c2)S(=O)(=O)C=C3)n1Cc1ccc(Cl)cc1` [Compound 430]: the IC50 was in the range of 50 to 500 nM. Turning to `Cc1nc(C(F)(F)F)ncc1NC(=O)N1CCC[C@@H]1c1nnc(C)n1Cc1ccc(Cl)cc1` [Compound 431], the IC50 is under 50 nM. The same measure for `Cc1nnc([C@H]2C[C@H](O)CN2C(=O)N[C@H]2CCOc3cc(C(F)(F)F)ccc32)n1Cc1ccc(Cl)cc1` [Compound 432]: under 50 nM. For the compound `Cc1onc(-c2ccccc2)c1NC(=O)N1C[C@@H](O)C[C@@H]1c1nnc(C)n1Cc1ccc(Cl)cc1` [Compound 433], the half-inhibitory concentration (IC50) is under 50 nM.

Consider `Cc1nnc([C@H]2CCCN2C(=O)Nc2ccc(Cl)cc2S(C)(=O)=O)n1Cc1ccc(Cl)cc1` [Compound 434], for which the 50% inhibitory concentration (IC50) is under 50 nM. With `Cc1nnc([C@H]2C[C@H](O)CN2C(=O)Nc2ccc(Cl)cc2F)n1Cc1ccc(Cl)cc1` [Compound 435] the figure was under 50 nM. The same measure for `Cc1nnc([C@H]2C[C@H](O)CN2C(=O)NC2(c3ccc(C(F)(F)F)cc3)CC2)n1Cc1ccc(Cl)cc1` [Compound 436]: under 50 nM; for `Cc1nnc([C@H]2C[C@H](O)CN2C(=O)Nc2ccc(Cl)c(C(F)(F)F)c2)n1Cc1ccc(Cl)cc1` [Compound 437]: under 50 nM.

For the compound `Cc1nnc([C@H]2C[C@@H](O)CN2C(=O)N[C@@H](C)c2ccc(Cl)cc2)n1Cc1ccc(Cl)cc1` [Compound 438], the IC50 is under 50 nM.

Turning to `Cc1nnc([C@H]2C[C@@H](O)CN2C(=O)NCc2ccc(C(F)(F)F)cc2)n1Cc1ccc(Cl)cc1` [Compound 439], the IC50 was in the range of 50 to 500 nM. With `Cc1nnc([C@H]2C[C@H](O)CN2C(=O)NC2CCOc3cc(C#N)ccc32)n1Cc1ccc(Cl)cc1` (stereo partly shown) [Compound 440] the figure was under 50 nM. On to `Cc1nnc([C@H]2CCCN2C(=O)Nc2ccc(Cl)c(C(F)(F)F)c2)n1Cc1ccc(Cl)cc1` [Compound 441], for which the IC50 was in the range of 50 to 500 nM.
